Molecular target: T1, CaSR (Homo sapiens, UniProt P41180)
T1 sequence (P41180 20-1078): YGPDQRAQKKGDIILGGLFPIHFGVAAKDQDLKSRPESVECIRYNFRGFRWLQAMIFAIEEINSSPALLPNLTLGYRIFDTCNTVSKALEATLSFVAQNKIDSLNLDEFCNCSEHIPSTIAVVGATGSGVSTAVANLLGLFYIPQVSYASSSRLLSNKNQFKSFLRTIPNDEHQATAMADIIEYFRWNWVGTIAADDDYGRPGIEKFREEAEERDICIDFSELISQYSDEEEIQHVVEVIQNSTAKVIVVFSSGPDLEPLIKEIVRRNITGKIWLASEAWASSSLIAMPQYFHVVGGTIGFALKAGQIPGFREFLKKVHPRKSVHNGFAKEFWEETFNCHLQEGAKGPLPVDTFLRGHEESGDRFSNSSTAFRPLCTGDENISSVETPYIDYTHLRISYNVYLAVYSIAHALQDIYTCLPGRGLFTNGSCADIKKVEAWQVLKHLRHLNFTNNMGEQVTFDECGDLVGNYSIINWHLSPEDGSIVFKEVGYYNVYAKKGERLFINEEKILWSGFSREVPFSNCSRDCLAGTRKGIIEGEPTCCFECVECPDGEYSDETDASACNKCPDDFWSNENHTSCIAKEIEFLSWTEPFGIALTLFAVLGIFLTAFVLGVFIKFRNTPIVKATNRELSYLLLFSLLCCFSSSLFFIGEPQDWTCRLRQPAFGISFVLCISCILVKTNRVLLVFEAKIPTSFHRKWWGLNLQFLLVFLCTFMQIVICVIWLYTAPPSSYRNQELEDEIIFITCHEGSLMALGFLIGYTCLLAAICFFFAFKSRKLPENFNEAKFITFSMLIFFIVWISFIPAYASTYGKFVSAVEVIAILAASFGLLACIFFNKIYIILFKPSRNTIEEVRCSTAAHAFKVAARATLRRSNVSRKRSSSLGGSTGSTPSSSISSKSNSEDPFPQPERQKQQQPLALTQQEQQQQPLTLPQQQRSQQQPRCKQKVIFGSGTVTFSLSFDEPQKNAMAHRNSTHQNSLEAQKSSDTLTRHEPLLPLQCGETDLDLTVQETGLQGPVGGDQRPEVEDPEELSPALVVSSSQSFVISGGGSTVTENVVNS
Experiment: [Ca^2+]i signaling (Fura-2) evoked by [Mg^2+]o/[Ca^2+]o in CaSR-expressing HEK293 cells (5001 cell population assay)
Format: cell-based
Set-up: expressed in transfected cells
Description: Measurement of intracellular free Ca^2+ was assessed as described by Huang, et al^33. Briefly, wild type CaSR, or its mutants, were transiently transfected into HEK293 cells grown on coverslips and cultured for 48 h. The cells were subsequently loaded for 15 min using 2 μM Fura-2 AM in 2 mL physiological saline buffer (10 mM HEPES, 140 mM NaCl, 5 mM KCl, 1.0 mM MgCl2 and pH 7.4). The coverslips were mounted in a bath chamber on the stage of a Leica DM6000 fluorescence microscope. The cells were alternately illuminated with 340 or 380 nm light, and the fluorescence at an emission wavelength 510 nm was recorded in real time as the [Ca^2+]o and/or [Mg^2+]o was increased in a stepwise manner in the presence or absence of 0.25 mM TNCA in buffer (10 mM HEPES, 155 mM NaCl, 5 mM KCl, 2 mM NaH2PO4, 0.5 mM MgCl2 and pH 7.4). The ratio of the emitted fluorescence intensities resulting from excitation at both wavelengths was utilized as a surrogate for changes in [Ca^2+]i and was further plotted and analyzed as a function of [Ca^2+]o. All experiments were performed at room temperature. The signals from 20 to 100 single cells were recorded for each measurement. Oscillations were identified as three successive fluctuations in [Ca^2+]i after the initial peak. Determination of the Effect of TNCA on Mg^2+-Evoked [Ca^2+]i Signaling by Stimulation of CaSR in Cell Populations.
Changes in the intracellular Ca^2+ concentration [Ca^2+ ]i elicited by extracellular Mg^2+ ([Mg^2+]o) in a population of cells were measured by fluorimetry as described previously^33. A cell line stably expressing CaSR (designated the “5001 cell line”) was seeded on 13.5×20-mm coverslips and cultured in DMEM. After reaching 95% confluence, cells were washed three times using loading buffer (20 mM HEPES [pH 7.4], 125 mM NaCl, 5 mM KCl, 1.25 mM CaCl2, 1 mM MgCl2, 1 mM NaH2PO4, 1% glucose, and 1% BSA) and subsequently incubated with 4 μM Fura-2 and 4 μM pluronic F127 for 20 minutes at 37° C. to enable sufficient dye loading in the same buffer. After removing the excess Fura-2, coverslips with cells were diagonally positioned in a quartz cuvette filled with 3 ml of experimental buffer (125 mM NaCl, 5 mM KCl, 0.5 mM CaCl2, 0.5 mM MgCl2, 1% glucose, and 1% BSA). Measurements of Fura-2 fluorescence at 510 nm when excited at 340 or 380 nm were performed on a QM1 fluorescence spectrophotometer (PTI). The emission ratio of 340/380 was calculated and used to reflect the changes in [Ca^2+]i when different concentrations of [Mg^2+]o were applied to the cells.
To examine the co-activation of CaSR by TNCA and [Mg^2+]o or [Ca^2+]o, different concentrations of TNCA were placed in the experimental buffer with a fixed concentration of [Ca^2+]o and varying concentrations of [Mg^2+]o, or vice versa, as described in the results section. The effects of other ligands were analyzed by comparing the changes in [Ca^2+ ]i produced by [Mg^2+]o alone or by co-application of Mg^2+ with other ligands. The EC50 of [Mg^2+]o obtained during incubation with various concentrations of TNCA is compared with that observed in the presence of [Mg^2+]o alone. The EC50 changes were plotted as a function of TNCA concentration and the curve was fit to the Hill equation. The activation of CaSR by the TNCA, functioning as a co-agonist with [Mg^2+]o, is indicated by the increasingly leftward-shifted EC50 for [Mg^2+]o as the concentration of TNCA increases (FIG. 6).

- effect on [Mg^2+]o activation of CaSR: further potentiated
SMILES: N[C@@H](Cc1ccccc1)C(=O)O [Phe, phenylalanine]
